From patent publication US12653892B2, “Composition and method for new therapeutic agents including guanidinium-presenting dendrimers and branched structures” (priority 2020, dated 2026)
≈ marks a conversion by molar mass, not a printed value. Like-named read-outs stand apart in the source and are kept apart here. Blank lines part the entries; values can stand above or below the compound they belong to.

Columns and labels:
S. aureus ATCC 29213 [1] = test: MIC by broth microdilution, S. aureus ATCC 29213; format: cell-based; conditions: for MIC, Antibiotic +NH2-triguan-6C / MIC, Antibiotic +NO2-triamine-2C / MIC, Antibiotic +NO2-triamine-6C: non-covalent mixture; for MIC: Staphylococcus aureus
Method: (§1) Methods—Determination of MICs: MICs for S. aureus, E. faecium, E. coli, P aeruginosa, A. baumannii, K. pneumoniae were determined using broth microdilution in accordance with CLSI methods (Wiegand, I.; Hilpert, K.; Hancock, R. E. W. Agar and Broth Dilution Methods to Determine the Minimal Inhibitory Concentration (MIC) of Antimicrobial Substances. Nat. Protoc. 2008, 3, 163-175). One day prior to each MIC experiment, bacterial strains were streaked for single colonies on TSA plates from frozen glycerol stocks stored at −80° C. Three to five colonies from each plate were harvested with a disposable inoculating loop and resuspended in 500 μL of PBS to create a bacterial suspension. Alternatively, a single colony of the appropriate bacterial strain was added to 4 mL TSB for overnight growth at 37° C. with 200 rpm shaking to create a stationary phase bacterial suspension. The suspension was diluted in PBS to an OD600 of 0.1 (˜[…] CFU/ml), and the OD 0.1 suspension was diluted 1:100 in Mueller Hinton broth (MHB, Difco 257530) just prior to inoculating the 96-well polypropylene treatment plate (Costar 3879). A 50 μL portion of inoculum was added to a treatment plate containing 2-fold serial dilutions of compound in MHB (50 μL of treatment/well) to lend a final total volume of 100 μL/well and a final inoculum density of ˜5×10^5 CFU/ml. The completed assay plate was sealed with Parafilm, placed in a lidded plastic tray lined with moistened paper towels, and incubated at 37° C. for approximately 20 hours. The MIC was read as the lowest treatment concentration where no bacterial growth occurred, as determined by OD600 measurements on a microplate reader. If a different plate or media type was used for a particular test, this is noted below the respective table.

S. aureus ATCC 29213 [2] = conditions: cited from earlier work
M. abscessus = test: MIC, resazurin readout, M. abscessus; format: cell-based; conditions: Mycobacteroides abscessus
Method: (§2) MICs for C. glutamicum and the mycobacteria, M. smegmatis and M. abscessus, were determined as follows. A suspension of stationary phase culture was adjusted with PBS to approximately 10^8 CFU/mL and diluted 1:100 in nutrient media just prior to inoculating 96-well polystyrene treatment plates (Costar 3370). Nutrient media was Mueller Hinton Broth for C. glutamicum and Middlebrook media (Middlebrook 7H9 Broth with 0.2% glycerol and 10% OADC supplement, Difco, BD) for mycobacteria. A 50 μL portion of inoculum was added to a treatment plate containing 2-fold serial dilutions of compounds in the same media (50 μL of treatment/well) to lend a final total volume of 100 μL/well and a final inoculum density of ˜5×10^5 CFU/ml. The completed assay plate was sealed with Parafilm, placed in a lidded plastic tray lined with moistened paper towels, and incubated at 37° C. for around 22 h (C. glutamicum), 42-44 h (M. smegmatis) or 46-48 hours (M. abscessus). […] The MIC was identified as the lowest treatment concentration of drug that prevented color change of resazurin from blue to pink/violet, as determined by measuring fluorescence in a black microtiter plate with excitation at 570 nm and emission at 615 nm on a Molecular Devices M5 microplate reader.

E. coli BW25113ΔtolC = test: MIC by broth microdilution, E. coli BW25113ΔtolC; format: cell-based; conditions: Escherichia coli
Method: as §1, with “A 50 μL portion of inoculum was added to a treatment plate containing 2-fold serial dilutions of compound in MHB (50 μL of treatment/well) to lend a final total volume of 100 μL/well and a final inoculum density of ˜5×10^5 CFU/ml. The completed assay plate was sealed with Parafilm, placed in a lidded plastic tray lined with moistened paper towels, and incubated at 37° C. for approximately 20 hours.” left out, “If a different plate or media type was used for a particular test, this is noted below the respective table.” left out

S. aureus USA400 (MRSA) = test: MIC by broth microdilution, S. aureus USA400 (MRSA); format: cell-based; conditions: Staphylococcus aureus
Method: as §1, with “A 50 μL portion of inoculum was added to a treatment plate containing 2-fold serial dilutions of compound in MHB (50 μL of treatment/well) to lend a final total volume of 100 μL/well and a final inoculum density of ˜5×10^5 CFU/ml. The completed assay plate was sealed with Parafilm, placed in a lidded plastic tray lined with moistened paper towels, and incubated at 37° C. for approximately 20 hours.” left out, “If a different plate or media type was used for a particular test, this is noted below the respective table.” left out

A. baumannii ATCC 19606 = test: MIC by broth microdilution, A. baumannii ATCC 19606; format: cell-based; conditions: Acinetobacter baumannii, ATCC19606
Method: as §1, with “A 50 μL portion of inoculum was added to a treatment plate containing 2-fold serial dilutions of compound in MHB (50 μL of treatment/well) to lend a final total volume of 100 μL/well and a final inoculum density of ˜5×10^5 CFU/ml. The completed assay plate was sealed with Parafilm, placed in a lidded plastic tray lined with moistened paper towels, and incubated at 37° C. for approximately 20 hours.” left out, “If a different plate or media type was used for a particular test, this is noted below the respective table.” left out

[3] = test system: E. coli NCTC 13846 (colistin-resistant); test: MIC by broth microdilution, E. coli NCTC 13846; format: cell-based; conditions: Escherichia coli, NCTC13846
Method: as §1, with “A 50 μL portion of inoculum was added to a treatment plate containing 2-fold serial dilutions of compound in MHB (50 μL of treatment/well) to lend a final total volume of 100 μL/well and a final inoculum density of ˜5×10^5 CFU/ml. The completed assay plate was sealed with Parafilm, placed in a lidded plastic tray lined with moistened paper towels, and incubated at 37° C. for approximately 20 hours.” left out, “If a different plate or media type was used for a particular test, this is noted below the respective table.” left out

[4] = test system: S. aureus USA400 (MRSA), MW2; test: Minimum Bacterial Eradication Concentration (MBEC) assay; format: cell-based
C. glutamicum = test: MIC, resazurin readout, C. glutamicum; format: cell-based; conditions: Corynebacterium glutamicum
Method: as §2

M. smegmatis = test: MIC, resazurin readout, M. smegmatis; format: cell-based; conditions: Mycolicibacterium smegmatis
Method: as §2

K. pneumoniae BAA-2146 = test: MIC by broth microdilution, K. pneumoniae BAA-2146; format: cell-based; conditions: Klebsiella pneumoniae, BAA2146
Method: as §1, with “A 50 μL portion of inoculum was added to a treatment plate containing 2-fold serial dilutions of compound in MHB (50 μL of treatment/well) to lend a final total volume of 100 μL/well and a final inoculum density of ˜5×10^5 CFU/ml. The completed assay plate was sealed with Parafilm, placed in a lidded plastic tray lined with moistened paper towels, and incubated at 37° C. for approximately 20 hours.” left out, “If a different plate or media type was used for a particular test, this is noted below the respective table.” left out

E. coli 25922 = test: Time-kill kinetics against E. coli 25922 (FIG. 2); format: cell-based
E. coli ATCC 25922 [5] = test: MIC by broth microdilution, E. coli ATCC 25922; format: cell-based
Method: as §1

E. coli BW25113 = test: MIC by broth microdilution, E. coli BW25113; format: cell-based; conditions: Escherichia coli
Method: as §1, with “A 50 μL portion of inoculum was added to a treatment plate containing 2-fold serial dilutions of compound in MHB (50 μL of treatment/well) to lend a final total volume of 100 μL/well and a final inoculum density of ˜5×10^5 CFU/ml. The completed assay plate was sealed with Parafilm, placed in a lidded plastic tray lined with moistened paper towels, and incubated at 37° C. for approximately 20 hours.” left out, “If a different plate or media type was used for a particular test, this is noted below the respective table.” left out

E. coli UTI89 = test: MIC by broth microdilution, E. coli UTI89; format: cell-based; conditions: Escherichia coli
Method: as §1, with “A 50 μL portion of inoculum was added to a treatment plate containing 2-fold serial dilutions of compound in MHB (50 μL of treatment/well) to lend a final total volume of 100 μL/well and a final inoculum density of ˜5×10^5 CFU/ml. The completed assay plate was sealed with Parafilm, placed in a lidded plastic tray lined with moistened paper towels, and incubated at 37° C. for approximately 20 hours.” left out, “If a different plate or media type was used for a particular test, this is noted below the respective table.” left out

E. coli ATCC 25922 [6] = conditions: cited from earlier work
[7] = S. aureus (ATCC 29213), Mueller Hinton Broth, polypropylene plate
[8] = ATCC29213, 20 h, S. aureus (ATCC 29213), Mueller Hinton Broth, polypropylene plate, read-out: MIC, Antibiotic Alone
[9] = E. coli (ATCC 25922), non-covalent mixture

- MIC, Antibiotic +NH2-triguan-6C (S. aureus ATCC 29213 [1]; [7]): 2 µM (≈ 1.5 µg/mL)
- MIC, Antibiotic +NO2-triamine-2C (S. aureus ATCC 29213 [1]; [7]): 2 µM (≈ 1.5 µg/mL)
- MIC, Antibiotic +NO2-triamine-6C (S. aureus ATCC 29213 [1]; [7]): 2 µM (≈ 1.5 µg/mL)
- MIC (S. aureus ATCC 29213 [1]; [8]): 2 µM (≈ 1.5 µg/mL)
Compound: CC[C@H]1OC(=O)[C@H](C)[C@@H](O[C@H]2C[C@@](C)(OC)[C@@H](O)[C@H](C)O2)[C@H](C)[C@@H](O[C@@H]2O[C@H](C)C[C@H](N(C)C)[C@H]2O)[C@](C)(O)C[C@@H](C)CN(C)[C@H](C)[C@@H](O)[C@]1(C)O [Azithromycin]
- Literature MIC (S. aureus ATCC 29213 [2]): 0.64 to 2.5 µM

Compound: CN[C@H](CC(C)C)C(=O)N[C@H]1C(=O)N[C@@H](CC(N)=O)C(=O)N[C@H]2C(=O)N[C@H]3C(=O)N[C@H](C(=O)N[C@H](C(=O)O)c4cc(O)cc(O)c4-c4cc3ccc4O)[C@H](O)c3ccc(c(Cl)c3)Oc3cc2cc(c3O[C@@H]2O[C@H](CO)[C@@H](O)[C@H](O)[C@H]2O[C@H]2C[C@](C)(N)[C@H](O)[C@H](C)O2)Oc2ccc(cc2Cl)[C@H]1O [Vancomycin]
- MIC (M. abscessus): 64 µM (≈ 92.8 µg/mL)
- MIC (E. coli BW25113ΔtolC): 128 to 256 µM (≈ 186 to 371 µg/mL)
- MIC, Antibiotic +NH2-triguan-6C (S. aureus ATCC 29213 [1]; [7]): 1 µM (≈ 1.45 µg/mL)
- MIC, Antibiotic +NO2-triamine-2C (S. aureus ATCC 29213 [1]; [7]): 1 µM (≈ 1.45 µg/mL)
- MIC, Antibiotic +NO2-triamine-6C (S. aureus ATCC 29213 [1]; [7]): 0.5 to 1 µM
- MIC (S. aureus ATCC 29213 [1]; ATCC29213): 0.5 to 1 µM (≈ 0.725 to 1.45 µg/mL)
- MIC (S. aureus ATCC 29213 [1]; ATCC29213, 20 h, read-out: MIC, Antibiotic Alone): 0.5 to 1 µM (≈ 0.725 to 1.45 µg/mL)
- MIC (S. aureus USA400 (MRSA)): 1 µM (≈ 1.45 µg/mL)
- MIC (A. baumannii ATCC 19606): 128 µM (≈ 186 µg/mL)
- MIC [3]: 64 to 128 µM (≈ 92.8 to 186 µg/mL)
- Literature MIC (S. aureus ATCC 29213 [2]): 0.34 to 1.4 µM
- MBEC [4]: >512 µM
- MIC (C. glutamicum): 0.25 µM (≈ 0.362 µg/mL)
- MIC (M. smegmatis): 8 to 16 µM (≈ 11.6 to 23.2 µg/mL)
- MIC (K. pneumoniae BAA-2146): > 256 µM
- Concentration at which effective in time-kill (E. coli 25922): 256 µM
- MIC (E. coli ATCC 25922 [5]; Escherichia coli, ATCC25922): 128 µM (≈ 186 µg/mL)
- MIC (E. coli BW25113): 128 µM (≈ 186 µg/mL)
- MIC (E. coli UTI89): 128 µM (≈ 186 µg/mL)

- MIC, Antibiotic +NH2-triguan-6C (S. aureus ATCC 29213 [1]; [7]): 4 µM (≈ 1.4 µg/mL)
- MIC, Antibiotic +NO2-triamine-2C (S. aureus ATCC 29213 [1]; [7]): 4 µM (≈ 1.4 µg/mL)
- MIC, Antibiotic +NO2-triamine-6C (S. aureus ATCC 29213 [1]; [7]): 4 µM (≈ 1.4 µg/mL)
- MIC (S. aureus ATCC 29213 [1]; [8]): 2 µM (≈ 0.699 µg/mL)
- MIC, Antibiotic Alone (E. coli ATCC 25922 [5]; E. coli (ATCC 25922)): 16 µM (≈ 5.59 µg/mL)
- MIC, Antibiotic +NH2-triguan-6C (E. coli ATCC 25922 [5]; [9]): 16 µM (≈ 5.59 µg/mL)
- MIC, Antibiotic +NO2-triamine-2C (E. coli ATCC 25922 [5]; [9]): 16 µM (≈ 5.59 µg/mL)
- MIC, Antibiotic +NO2-triamine-6C (E. coli ATCC 25922 [5]; [9]): 16 µM (≈ 5.59 µg/mL)
Compound: CC1(C)S[C@@H]2[C@H](NC(=O)[C@H](N)c3ccccc3)C(=O)N2[C@H]1C(=O)O [Ampicillin]
- Literature MIC (S. aureus ATCC 29213 [2]): 1.4 µM
- Literature MIC (E. coli ATCC 25922 [6]): 5 to 22 µM
